# Earlier results in patent US20100008866A1, “CIS-CYCLOHEXYL SUBSTITUTED PYRIMIDINONE DERIVATIVES” (Neurogen Corporation, priority 2006, published 2010).
# pKi: −log10 of the molar value.
# Biological target: VR (Homo sapiens, UniProt Q8NER1)
# Conditions: typically; no more than moderate affinity; read-out: Ki value (binds to VR)
# VR, sequence (Q8NER1 whole entry): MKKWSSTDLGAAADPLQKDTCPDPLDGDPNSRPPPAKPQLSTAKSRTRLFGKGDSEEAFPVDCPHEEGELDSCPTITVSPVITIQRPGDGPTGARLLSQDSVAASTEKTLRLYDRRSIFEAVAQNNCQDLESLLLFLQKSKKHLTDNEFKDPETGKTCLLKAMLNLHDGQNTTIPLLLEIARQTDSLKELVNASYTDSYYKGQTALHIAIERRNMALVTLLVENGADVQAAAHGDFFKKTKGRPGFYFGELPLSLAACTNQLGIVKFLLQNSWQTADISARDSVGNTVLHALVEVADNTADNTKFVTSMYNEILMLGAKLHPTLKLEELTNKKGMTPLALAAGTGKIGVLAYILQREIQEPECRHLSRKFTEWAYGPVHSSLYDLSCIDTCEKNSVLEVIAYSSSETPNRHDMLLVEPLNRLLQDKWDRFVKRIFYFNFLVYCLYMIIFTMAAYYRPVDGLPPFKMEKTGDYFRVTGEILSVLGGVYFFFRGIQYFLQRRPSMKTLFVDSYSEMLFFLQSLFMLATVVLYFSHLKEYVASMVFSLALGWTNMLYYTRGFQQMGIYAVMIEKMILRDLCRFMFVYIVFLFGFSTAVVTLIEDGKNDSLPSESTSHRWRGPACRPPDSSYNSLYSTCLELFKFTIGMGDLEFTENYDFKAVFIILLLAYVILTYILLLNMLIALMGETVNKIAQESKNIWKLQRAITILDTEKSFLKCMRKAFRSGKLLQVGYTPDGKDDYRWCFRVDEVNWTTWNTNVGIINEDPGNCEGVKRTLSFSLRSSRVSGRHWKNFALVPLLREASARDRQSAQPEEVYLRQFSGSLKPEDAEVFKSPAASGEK
smiles,measurement,value
Cl.Cl.Cl.Cl.Cl.Cl.N.N.N.N.N.N.N.N.N.N.N.N.N.N.[O-2].[O-2].[Ru+3].[Ru+3].[Ru+4] [ruthenium red],pKi,≤ 3.85
